Read-outs that look alike come from different tables or passages of the source. Values belong to the molecule of their own block, whether it stands above or below them.
Experiments:
[1] = system: DU145 cells (prostate); test: MTT in vitro cell proliferation / combination assay, DU145; type: cell-based; conditions: Homo sapiens, DU-145; DU145, chemotherapeutic alone; read-out: Chemoth EC50
Method: (§1) Proliferation assays (MTT) were performed as described in: • “Chemical interrogation of FOXO3a nuclear translocation identifies potent and selective inhibitors of phosphoinositide 3-kinases”, W. Link, J. Oyarzabal, B. G. Serelde, M. I. Albarran, O. Rabal, A. Cebria, P. Alfonso, J. Fominaya, O. Renner, S. Peregrina, D. Soilan, P. A. Ceballos, A. I. Hernandez, M. Lorenzo, P. Pevarello, T. G. Granda, G. Kurz, A. Carnero, J. R. Bischoff, J. Biol. Chem. 284 (2009) 28392-28400. Combination Assay
(§2) A combination index score is calculated by the Chou and Talalay method (CalcuSyn software, Biosoft). The strength of synergy is scored using the ranking system Chou and Talalay: CI less than 0.8 indicates synergy, CI between 0.8 and 1.2 indicates additivity and CI greater than 1.2 indicates antagonism.
(§3) The EC50 values of representative combinations were also calculated. The individually measured EC50 values of the chemotherapeutic agent and the example compounds are compared to the EC50 value of the combination. The cell lines are characterised by tumor type.
(§4) Combination assays were performed as described in: • “Pim 1 kinase inhibitor ETP-45299 suppresses cellular proliferation and synergizes with PI3K inhibition”. Blanco-Aparicio, Carmen; Collazo, Ana Maria Garcia; Oyarzabal, Julen; Leal, Juan F.; Albaran, Maria Isabel; Lima, Francisco Ramos; Pequeno, Belen; Ajenjo, Nuria; Becerra, Mercedes; Alfonso, Patricia; Reymundo, Maria Isabel; Palacios, Irene; Mateos, Genoveva; Quinones, Helena; Corrionero, Ana; Carnero, Amancio; Pevarello, Paolo; Lopez, Ana Rodriguez; Fominaya, Jesus; Pastor, Joaquin; Bischoff, James R. Cancer Letters (Shannon, Ireland) 2011, 300(2), 145-153.

[2] = system: Jeko-1 cells (Mantle cell lymphoma); test: MTT in vitro cell proliferation / combination assay, Jeko-1; type: cell-based; conditions: Homo sapiens; Jeko-1, chemotherapeutic alone; read-out: Chemoth EC50
Method: as §2, §3
Blanco-Aparicio, Carmen; Collazo, Ana Maria Garcia; Oyarzabal, Julen; Leal, Juan F.; Albaran, Maria Isabel; Lima, Francisco Ramos; Pequeno, Belen; Ajenjo, Nuria; Becerra, Mercedes; Alfonso, Patricia; Reymundo, Maria Isabel; Palacios, Irene; Mateos, Genoveva; Quinones, Helena; Corrionero, Ana; Carnero, Amancio; Pevarello, Paolo; Lopez, Ana Rodriguez; Fominaya, Jesus; Pastor, Joaquin; Bischoff, James R. Cancer Letters (Shannon, Ireland) 2011, 300(2), 145-153.

[3] = system: Mantle cell lymphoma cells; test: MTT in vitro cell proliferation / combination assay, mantle cell lymphoma (cell line not given); type: cell-based; conditions: Mantle cell lymphoma (cell line cell empty)
Method: as §1, §2, §3, §4

[4] = system: MiaPaca-2 cells (pancreas); test: MTT in vitro cell proliferation / combination assay, MiaPaca-2; type: cell-based; conditions: Homo sapiens, MIA PaCa-2; MiaPaca-2, chemotherapeutic alone; read-out: Chemoth EC50
Method: as §1, §2, §3, §4

[5] = system: HTC116 cells (colon carcinoma); test: MTT in vitro cell proliferation / combination assay, HTC116; type: cell-based; conditions: HTC116, chemotherapeutic alone; read-out: Chemoth EC50
Method: as §2, §3

[6] = molecular target: PIM-3 (Homo sapiens (Human), UniProt Q86V86); test: PIM-3 biochemical assay (ADP Hunter); conditions: semi-quantitative; read-out: PIM3 IC50
[7] = system: Bad S112 phosphorylation in H1299 cells overexpressing Pim1 (H1299Pim1); test: Bad S112 phosphorylation inhibition assay (In Cell ELISA); type: cell-based; conditions: read-out: EC50 BadP ELISA H1299 Pim1
Method: Efficacy of compounds of the invention on the inhibition of Bad phosphorylation was measured by an In Cell ELISA. EC50 values were established for the tested compounds.
Cells: H1299 cells overexpressing Pim1 (H1299Pim1)
Cells were seeded in 15000 cells per 200 μl per well into 96-well plates and incubated for 16 h at 37° C., 5% CO2. On day two, nine serial 1:2 compound dilutions were made in DMSO in a 96-well plate. The compounds were added to duplicate wells in 96-well cell plates using a FX BECKMAN robot (Beckman Coulter) and incubated at 37° C. with CO2 atmosphere. After 4 hours, relative levels of Bad S112 phosphorylation were measured in Cell ELISA using SuperSignal ELISA Femto substrate (Pierce) and read on VICTOR (Perkin Elmer). EC50 values were calculated using ActivityBase from IDBS.

[8] = molecular target: PIM-2 (Homo sapiens (Human), UniProt Q9P1W9); test: PIM-2 biochemical assay (ADP Hunter); conditions: semi-quantitative; read-out: PIM2 IC50
Chain of PIM-2 (Q9P1W9 whole entry): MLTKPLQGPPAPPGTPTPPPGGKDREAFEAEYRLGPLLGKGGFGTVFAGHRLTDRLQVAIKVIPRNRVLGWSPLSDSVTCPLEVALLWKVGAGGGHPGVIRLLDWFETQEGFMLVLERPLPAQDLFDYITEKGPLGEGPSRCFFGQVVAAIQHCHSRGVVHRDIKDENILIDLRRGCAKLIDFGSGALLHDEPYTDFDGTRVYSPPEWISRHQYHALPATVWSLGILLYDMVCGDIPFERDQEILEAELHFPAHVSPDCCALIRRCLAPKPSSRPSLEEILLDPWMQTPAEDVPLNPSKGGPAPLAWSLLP
From the text: The biochemical assay to measure PIM-2 activity relies on the ADP Hunter assay kit (DiscoveRx Corp., Cat. #90-0077), that determines the amount of ADP as direct product of the kinase enzyme activity.

[9] = molecular target: PIM-1 (Homo sapiens (Human), UniProt P11309); test: PIM-1 biochemical assay (ADP Hunter)
Chain of PIM-1 (P11309 whole entry): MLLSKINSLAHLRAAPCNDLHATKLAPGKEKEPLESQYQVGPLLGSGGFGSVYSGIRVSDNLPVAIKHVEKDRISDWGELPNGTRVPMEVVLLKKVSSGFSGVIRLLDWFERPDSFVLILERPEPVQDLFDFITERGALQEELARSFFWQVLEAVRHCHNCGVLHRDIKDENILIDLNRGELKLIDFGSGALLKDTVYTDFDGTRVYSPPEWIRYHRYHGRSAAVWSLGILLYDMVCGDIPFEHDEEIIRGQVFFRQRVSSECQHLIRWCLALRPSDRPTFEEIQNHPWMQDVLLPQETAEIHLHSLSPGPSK

[10] = system: MV4:11 cells (leukemia, AML); test: MTT in vitro cell proliferation / combination assay, MV4:11; type: cell-based; conditions: for EC50: Homo sapiens, MV4:11, example compound alone
Method: as §2
(§5) The EC50 values of representative combinations were also calculated. The individually measured EC50 values of the chemotherapeutic agent and the example compounds are compared to the EC50 value of the combination. The cell lines are characterised by tumor type. […]

[11] = system: SKMel19 cells (melanoma); test: MTT in vitro cell proliferation / combination assay, SKMel19; type: cell-based
Method: as §2, §5

[12] = Homo sapiens, NCI-H1299, semi-quantitative
[13] = read-out: PIM1 IC50, semi-quantitative
[14] = MV4:11, combination with GDC-0941
[15] = SKMel19, combination with GDC-0879
[16] = SKMel19, combination with PD-0332991
[17] = MV4:11, combination with GDC-0879
[18] = MV4:11, combination with PD-0332991

- EC50 [1]: 25 nM
Compound: CC(=O)O[C@@]12CO[C@@H]1C[C@H](O)[C@@]1(C)C(=O)[C@H](O)C3=C(C)[C@@H](OC(=O)[C@H](O)[C@@H](NC(=O)OC(C)(C)C)c4ccccc4)C[C@](O)([C@@H](OC(=O)c4ccccc4)[C@H]21)C3(C)C [Taxotere, (2R,3S)—N-carboxy-3-phenylisoserine, N-tert-butyl ester, 13-ester with 5,20-epoxy-1,2,4,7,10,13-hexahydroxytax-11-en-9-one 4-acetate 2-benzoate, trihydrate, reference compound]

- EC50 [2]: 5000 nM
- EC50 ([3]; chemotherapeutic alone, read-out: Chemoth EC50): 5000 nM
- EC50 [4]: 20000 nM
- EC50 [5]: 10000 nM
Compound: CS(=O)(=O)CCNCc1ccc(-c2ccc3ncnc(Nc4ccc(OCc5cccc(F)c5)c(Cl)c4)c3c2)o1 [lapatinib, N-(3-chloro-4-(3-fluorobenzyloxy)phenyl)-6-(5-((2-(methylsulfonyl)ethylamino)-methyl)furan-2-yl)quinazolin-4-amine, reference compound]

Compound: O=C(NOC[C@H](O)CO)c1ccc(F)c(F)c1Nc1ccc(I)cc1F [PD-0325901, (R)—N-(2,3-dihydroxypropoxy)-3,4-difluoro-2-(2-fluoro-4-iodophenylamino)benz-amide, reference compound]
- EC50 [5]: 1250 nM

Compound: CN1CCOc2c1c(N1CCC(N(C)C)CC1)nn1c(-c3cccc(OC(F)(F)F)c3)nnc21 [Example 5, Dimethyl-{1-[6-methyl-3-(3-trifluoromethoxy-phenyl)-7,8-dihydro-6H-9-oxa-1,2,3a,4,6-pentaaza-cyclopenta[a]naphthalen-5-yl]-piperidin-4-yl}-amine]
- IC50 [6]: 100 to 1000 nM
- EC50 [7, 12]: 250 to 1000 nM
- IC50 [8]: 100 to 1000 nM
- IC50 [9]: < 100 nM

Compound: CN1CCOc2c(N[C@H]3CC[C@H](O)CC3)nn3c(-c4cccc(OC(F)(F)F)c4)nnc3c21 [Example 20, 4-[9-Methyl-3-(3-trifluoromethoxy-phenyl)-8,9-dihydro-7H-6-oxa-1,2,3a,4,9-pentaaza-cyclopenta[a]naphthalen-5-ylamino]-cyclohexanol]
- IC50 [6]: 100 to 1000 nM
- EC50 [7, 12]: 250 to 1000 nM
- IC50 [8]: > 1000 nM
- IC50 [9]: 100 to 1000 nM

Compound: COc1ccc(-c2nnc3c4c(c(N5CCC(CN)CC5)nn23)N(C)CCO4)cc1 [Example 52, C-{1-[3-(4-Methoxy-phenyl)-6-methyl-7,8-dihydro-6H-9-oxa-1,2,3a,4,6-pentaaza-cyclopenta[a]naphthalen-5-yl]-piperidin-4-yl}-methylamine]
- IC50 [6]: > 1000 nM
- EC50 ([7]; semi-quantitative): 1000 to 10000 nM
- IC50 [8]: > 1000 nM
- IC50 [9, 13]: 100 to 1000 nM

Compound: CN1CCC(Nc2nn3c(-c4cccc(OC(F)(F)F)c4)nnc3c3c2N(C)CCO3)CC1 [Example 2, (1-Methyl-piperidin-4-yl)-[6-methyl-3-(3-trifluoromethoxy-phenyl)-7,8-dihydro-6H-9-oxa-1,2,3a,4,6-pentaaza-cyclopenta[a]naphthalen-5-yl]-amine]
- IC50 [6]: 100 to 1000 nM
- EC50 [7, 12]: 250 to 1000 nM
- IC50 [8]: 100 to 1000 nM
- IC50 [9, 13]: < 100 nM

- EC50 ([3]; example compound alone, read-out: Example EC50): 10000 nM
- EC50 [10]: 5000 nM
- IC50 [9, 13]: < 100 nM
Compound: CN1CCC(CNc2nn3c(-c4cccc(OC(F)(F)F)c4)nnc3c3c2N(C)CCO3)CC1 [Example 16, (1-Methyl-piperidin-4-ylmethyl)-[6-methyl-3-(3-trifluoromethoxy-phenyl)-7,8-dihydro-6H-9-oxa-1,2,3a,4,6-pentaaza-cyclopenta[a]naphthalen-5-yl]-amine]
- Combination Index (CI) ([3]; combination with lapatinib): 0.289
- Synergy ([3]; combination with lapatinib): +++ (0.1<CI<0.3)
- Combination Index (CI) [10, 14]: 0.585
- Synergy [10, 14]: ++ (0.3<C1<0.7)

- EC50 ([11]; Homo sapiens, SK-MEL19, SKMel19, example compound alone): 6000 nM
- EC50 [10]: 500 nM
- IC50 [9, 13]: < 100 nM
Compound: CN1CCOc2c1c(NCC1CCNCC1)nn1c(-c3cccc(OC(F)(F)F)c3)nnc21 [Example 56, [6-Methyl-3-(3-trifluoromethoxy-phenyl)-7,8-dihydro-6H-9-oxa-1,2,3a,4,6-pentaaza-cyclopenta[a]naphthalen-5-yl]-piperidin-4-ylmethyl-amine]
- Combination Index (CI) [11, 15]: 0.516
- Synergy [11, 15]: ++ (0.3<C1<0.7)
- Combination Index (CI) [11, 16]: 0.568
- Synergy [11, 16]: ++ (0.3<C1<0.7)
- Combination Index (CI) [10, 17]: 0.604
- Synergy [10, 17]: ++ (0.3<C1<0.7)
- Combination Index (CI) [10, 14]: 0.024
- Synergy [10, 14]: ++++ (CI<0.1)
- Combination Index (CI) [10, 18]: 0.309
- Synergy [10, 18]: ++ (0.3<C1<0.7)

Compound: CN1CCOc2c1c(NCC1CC1)nn1c(-c3cccc(OC(F)(F)F)c3)nnc21 [Example 7, Cyclopropylmethyl-[6-methyl-3-(3-trifluoromethoxy-phenyl)-7,8-dihydro-6H-9-oxa-1,2,3a,4,6-pentaaza-cyclopenta[a]naphthalen-5-yl]-amine]
- IC50 [6]: < 100 nM
- EC50 [7, 12]: 1000 to 10000 nM
- IC50 [8]: 100 to 1000 nM
- IC50 [9]: < 100 nM
- IC50 ([9]; read-out: PIM1 IC50): 25.2 nM

Compound: CC1CN(C)c2c(NCC3CCN(C)CC3)nn3c(-c4cccc(OC(F)(F)F)c4)nnc3c2O1 (stereo not drawn) [Example 40, [6,8-Dimethyl-3-(3-trifluoromethoxy-phenyl)-7,8-dihydro-6H-9-oxa-1,2,3a,4,6-pentaaza-cyclopenta[a]naphthalen-5-yl]-(1-methyl-piperidin-4-ylmethyl)-amine]
- IC50 [6]: < 100 nM
- EC50 [7, 12]: 250 to 1000 nM
- IC50 [8]: 100 to 1000 nM
- IC50 [9, 13]: < 100 nM
